Measurements published in patent US4605658A (priority 1983, dated 1986).
≈ marks a conversion by molar mass, not a printed value. Read-outs that look alike come from different tables or passages of the source.

Legend:
DNA and RNA viruses [1] = conditions: known DHPA and related derivatives; cited from earlier work
[2] = Test 3: cytotoxicity, Vero cells; assay type: cell-based, green monkey; conditions: monkey, Table 4, read-out: Minimum cytotoxic concentration (MCC)
Description: (§1) A further test was effected to determine the cytotoxicity of the chemical compounds of Table 1. Cell cultures were incubated with varying concentrations of the esters, during a time period equal to the period required for measuring antiviral activity. The compounds (S)-DHPA and (RS)-DHPA were used for comparative purposes. For each compound, the minimum cytotoxic concentration (MCC) was measured, that is the concentration required to cause a microscopically detectable alteration of normal cell morphology, when incubated with the cells in this way.

Parainfluenza-virus-3 = experiment: microbe, parasite or virus in culture; assay type: cell-based; conditions: Vero
Reo virus-1 = experiment: Test 2: antiviral activity, reo virus-1 in Vero cells; assay type: cell-based; conditions: Reo virus-1, Vero cells; Table 3
Sindbis virus = experiment: microbe, parasite or virus in culture; assay type: cell-based; conditions: Vero
Measles virus = experiment: microbe, parasite or virus in culture; assay type: cell-based; conditions: Measles morbillivirus, Vero
[3] = Test 3: cytotoxicity, PRK cells; assay type: cell-based; conditions: rabbit, Table 4, read-out: Minimum cytotoxic concentration (MCC)
Description: as §1

Coxsackie virus-B4 = experiment: Test 2: antiviral activity, Coxsackie virus-B4 in HeLa cells; assay type: cell-based; conditions: Table 3
[4] = Test 3: cytotoxicity, HeLa cells; assay type: cell-based; conditions: human, Table 4, read-out: Minimum cytotoxic concentration (MCC)
Description: as §1

[5] = test system: Vesicular stomatitis virus; assay type: cell-based; conditions: ratio of MCC (PRK cells) to MIC50 (vesicular stomatitis virus)
Vaccinia = experiment: microbe, parasite or virus in culture; assay type: cell-based; conditions: Orthopoxvirus vaccinia, PRK, read-out: MIC50
Measles = experiment: microbe, parasite or virus in culture; assay type: cell-based; conditions: Measles morbillivirus, Vero; read-out: MIC50
Reovirus 1 = experiment: Test 1: inhibition of virus cytopathic effect, reovirus 1 in Vero B cells; assay type: cell-based; conditions: Mammalian orthoreovirus 1; Reovirus 1, Vero B cells; Table 2; read-out: MIC50
Herpes simplex 1 (KOS) = experiment: Test 1: inhibition of virus cytopathic effect, herpes simplex 1 (KOS) in PRK cells; assay type: cell-based; conditions: Table 2, read-out: MIC50
Parainfluenza = experiment: microbe, parasite or virus in culture; assay type: cell-based; conditions: Vero B; read-out: MIC50
Sindbis = experiment: Test 1: inhibition of virus cytopathic effect, Sindbis in Vero B cells; assay type: cell-based; conditions: Table 2, read-out: MIC50
Description: The antiviral properties of the esters prepared in Example 1 was explored in a variety of cell cultures and with a variety of DNA and RNA viruses such as listed in Table 2. The cells of each cell culture were inoculated with a certain virus in a dose of about 100 CCID50, that is about 100 times the dose needed to infect 50 percent of the cells. One hour after inoculation, the celss were washed with Eagle's nutrient medium and an ester of Example 1 was added in a dose varying from zero to 300 ug/ml and sometimes to more than 400 ug/ml. The compound (S)-DHPA was used in a comparative experiment. […] The cytopathic effect itself was measured in control experiments with virus-infected cell cultures without any added chemical compound and recorded as soon as it reached completion (Method of L. J. Rosenthal and I. L. Schechmaister in "Tissue Culture", p. 510, Academic Press, New York, 1973).
The results are shown in Table 2, wherein the abbreviations have the following meaning: PRK: primary culture of rabbit kidney cells; Vero: continuous line of green monkey kidney cells, HeLa: epithelial line of human cervical carcinoma cells.

Polio 1 = experiment: microbe, parasite or virus in culture; assay type: cell-based; conditions: HeLa, read-out: MIC50
Vesicular stomatitis = experiment: microbe, parasite or virus in culture; assay type: cell-based; conditions: PRK, read-out: MIC50
living cells = conditions: known DHPA; cited from earlier work
Solubility = assay type: physicochemical
DNA and RNA viruses [6] = experiment: Antiviral activity against DNA and RNA viruses (general statements); assay type: cell-based

Structure (SMILES)	MCC [2] [µg/mL]	EC50 (Parainfluenza-virus-3) [µg/mL]	EC50 (Reo virus-1) [µg/mL]	EC50 (Sindbis virus) [µg/mL]	EC50 (Measles virus) [µg/mL]	MCC [3] [µg/mL]	EC50 (Coxsackie virus-B4) [µg/mL]	MCC [4] [µg/mL]	antiviral index [5]	other results
Nc1ncnc2c1ncn2C[C@@H](O)CO [DHPA R-enantiomeric form, 9-(2,3-dihydroxypropyl)adenine]	–	–	–	–	–	–	–	–	–	antiviral activity (in words) (DNA and RNA viruses [1]): rather inactive
Nc1ncnc2c1ncn2CC(O)CO (racemic) [(RS)--DHPA, 9-(2,3-dihydroxypropyl)adenine, reference compound]	> 400	20 (≈ 95.6 µM)	100 (≈ 478 µM)	> 400	20 (≈ 95.6 µM)	> 400	> 400	> 400	–	antiviral activity (in words) (DNA and RNA viruses [1]): antivirally active
Nc1ncnc2c1ncn2CC(O)C(=O)OC1CCCCC1 (racemic) [Compound 11]	100	> 40	7 (≈ 22.9 µM)	> 100	15 (≈ 49.1 µM)	100	> 100	100	–	–
CC(C)OC(=O)C(O)Cn1cnc2c(N)ncnc21 (racemic) [Compound 4]	> 400	70 (≈ 264 µM)	40 (≈ 151 µM)	> 400	150 (≈ 565 µM)	> 400	> 400	> 400	higher than 100 -fold	–
COCCOC(=O)C(O)Cn1cnc2c(N)ncnc21 (racemic) [Compound 10]	> 400	300 (≈ 1070 µM)	70 (≈ 249 µM)	> 400	400 (≈ 1420 µM)	> 400	> 400	> 400	–	–
COC(=O)[C@H](O)Cn1cnc2c(N)ncnc21 [CH3 (R), methylester of 3-(adenin-9-yl)-2-hydroxypropanoic acid]	–	–	–	–	–	–	–	–	–	EC50 (Vaccinia): 15 µg/mL (≈ 63.2 µM); EC50 (Measles): 15 µg/mL (≈ 63.2 µM); EC50 (Reovirus 1): 70 µg/mL (≈ 295 µM); EC50 (Herpes simplex 1 (KOS)): > 400 µg/mL; EC50 (Parainfluenza): 200 µg/mL (≈ 843 µM); EC50 (Sindbis): > 400 µg/mL; EC50 (Polio 1): > 400 µg/mL; EC50 (Vesicular stomatitis): 1.5 µg/mL (≈ 6.32 µM)
CCCCCCCCOC(=O)C(O)Cn1cnc2c(N)ncnc21 (racemic) [Compound 9]	200	15 (≈ 44.7 µM)	7 (≈ 20.9 µM)	30 (≈ 89.4 µM)	70 (≈ 209 µM)	100	> 100	100	–	–
CCOC(=O)C(O)Cn1cnc2c(N)ncnc21 (racemic) [Compound 2]	> 400	20 (≈ 79.6 µM)	40 (≈ 159 µM)	> 400	20 (≈ 79.6 µM)	> 400	> 400	> 400	higher than 100 -fold	antiviral index ([5]; listed as racemic ethyl): higher than 400 -fold
Nc1ncnc2c1ncn2C[C@H](O)CO [(S)--DHPA, 9-(2,3-dihydroxypropyl)adenine, reference compound]	> 400	20 (≈ 95.6 µM)	200 (≈ 956 µM)	> 400	30 (≈ 143 µM)	> 400	> 400	> 400	–	EC50 (Vaccinia): 70 µg/mL (≈ 335 µM); EC50 (Measles): 70 µg/mL (≈ 335 µM); antiviral activity (in words) (DNA and RNA viruses [1]): antivirally active; EC50 (Reovirus 1): 70 µg/mL (≈ 335 µM); EC50 (Herpes simplex 1 (KOS)): > 400 µg/mL; EC50 (Sindbis): > 400 µg/mL; EC50 (Polio 1): > 400 µg/mL; EC50 (Vesicular stomatitis): 30 µg/mL (≈ 143 µM)
CCC(C)OC(=O)C(O)Cn1cnc2c(N)ncnc21 (racemic) [Compound 6]	> 400	200 (≈ 716 µM)	70 (≈ 251 µM)	300 (≈ 1070 µM)	40 (≈ 143 µM)	> 400	> 400	> 400	higher than 100 -fold	antiviral index ([5]; listed as 2-butyl): higher than 400 -fold
Nc1ncnc2c1ncn2CC(O)CO (stereo not drawn) [DHPA, 9-(2,3-dihydroxypropyl)adenine]	–	–	–	–	–	–	–	–	–	antiviral activity (in words) (DNA and RNA viruses [1]): broad-spectrum antiviral activity in (S) or (RS) form; acute toxicity for living cells (in words) (living cells): low acute toxicity for living cells
CC(C)CCOC(=O)C(O)Cn1cnc2c(N)ncnc21 (racemic) [Compound 8]	400	200 (≈ 682 µM)	30 (≈ 102 µM)	200 (≈ 682 µM)	12 (≈ 40.9 µM)	400	> 400	400	higher than 100 -fold	–
CCCCOC(=O)C(O)Cn1cnc2c(N)ncnc21 (racemic) [Compound 5]	200	70 (≈ 251 µM)	150 (≈ 537 µM)	150 (≈ 537 µM)	25 (≈ 89.5 µM)	200	> 400	400	–	–
CCCOC(=O)C(O)Cn1cnc2c(N)ncnc21 (racemic) [Compound 3]	400	100 (≈ 377 µM)	200 (≈ 754 µM)	> 200	100 (≈ 377 µM)	100	> 400	400	–	–
CCOC(=O)[C@@H](O)Cn1cnc2c(N)ncnc21 [C2 H5 (S)]	–	–	–	–	–	–	–	–	–	EC50 (Vaccinia): 7 µg/mL (≈ 27.9 µM); EC50 (Measles): 100 µg/mL (≈ 398 µM); EC50 (Reovirus 1): 70 µg/mL (≈ 279 µM); EC50 (Herpes simplex 1 (KOS)): > 400 µg/mL; EC50 (Parainfluenza): 100 µg/mL (≈ 398 µM); EC50 (Sindbis): > 400 µg/mL; EC50 (Polio 1): > 400 µg/mL; EC50 (Vesicular stomatitis): 1.5 µg/mL (≈ 5.97 µM)
Nc1ncnc2c1ncn2CC(O)C(=O)O (stereo not drawn) [3-(adenin-9-yl)-2-hydroxypropanoic acid]	–	–	–	–	–	–	–	–	–	solubility (in words) (Solubility): poorly soluble in water; antiviral activity (in words) (DNA and RNA viruses [6]): inactivity
CC(C)COC(=O)C(O)Cn1cnc2c(N)ncnc21 (racemic) [Compound 7]	> 400	20 (≈ 71.6 µM)	150 (≈ 537 µM)	> 400	40 (≈ 143 µM)	> 400	> 400	> 400	higher than 100 -fold	antiviral index ([5]; listed as 2-methylpropyl): higher than 400 -fold
COC(=O)[C@@H](O)Cn1cnc2c(N)ncnc21 [CH3 (S), methylester of 3-(adenin-9-yl)-2-hydroxypropanoic acid]	–	–	–	–	–	–	–	–	–	EC50 (Vaccinia): 20 µg/mL (≈ 84.3 µM); EC50 (Measles): 70 µg/mL (≈ 295 µM); EC50 (Reovirus 1): 300 µg/mL (≈ 1260 µM); EC50 (Herpes simplex 1 (KOS)): > 400 µg/mL; EC50 (Parainfluenza): 100 µg/mL (≈ 422 µM); EC50 (Sindbis): > 400 µg/mL; EC50 (Polio 1): > 400 µg/mL; EC50 (Vesicular stomatitis): 7 µg/mL (≈ 29.5 µM)
COC(=O)C(O)Cn1cnc2c(N)ncnc21 (racemic) [Compound 1, methylester of 3-(adenin-9-yl)-2-hydroxypropanoic acid]	> 400	20 (≈ 84.3 µM)	200 (≈ 843 µM)	> 400	40 (≈ 169 µM)	> 400	> 400	> 400	higher than 100 -fold	EC50 (Vaccinia): 7 µg/mL (≈ 29.5 µM); EC50 (Measles): 40 µg/mL (≈ 169 µM); EC50 (Reovirus 1): 300 µg/mL (≈ 1260 µM); EC50 (Herpes simplex 1 (KOS)): > 400 µg/mL; EC50 (Parainfluenza): 100 µg/mL (≈ 422 µM); EC50 (Sindbis): > 400 µg/mL; EC50 (Polio 1): > 400 µg/mL; EC50 (Vesicular stomatitis): 3 µg/mL (≈ 12.6 µM)
